Test results reported in patent publication US5750321A, “Process for buffering concentrated aqueous slurries” (priority 1997, dated 1998).
Entries after “also recorded” stand apart in the source; their conditions may differ. Where two headings read alike, the source gives them in different places. Values belong to the molecule of their own block, whether it stands above or below them.

What was measured:
[1] = Table 1; cited from earlier work
[2] = Electroacoustic sonic amplitude (ESA) electrokinetics of dye slurries as a function of pH; assay type: physicochemical
[3] = Langmuir 8, 291 (1992), cited from earlier work
[4] = Buffering of S1 slurry: pH measured after additions of aqueous buffering salt; assay type: physicochemical; settings: small additions of 0.1 mole/L salt to S1 slurry
[5] = FD2 slurry without surfactant, Texter

Compound: O=S1(=O)CCCCN1
pKa at 25° C. [1]: 12.02

lowest apparent pKa relative to FD2 ([2]; FD1 slurries compared with FD2): three pH units lower
lowest apparent pKa ([2]; FD1 slurries without dispersing aid, FIG. 2): about 2
solubility of the dye with increasing pH ([2]; above pH 5, upturn in ESA): marked increased solubility
intrinsic electrokinetic charge ([2]; sign of charge, ESA): negative
Compound: CC1=NN(c2ccc(C(=O)O)cc2)C(=O)C1=CC=Cc1c(C)nn(-c2ccc(C(=O)O)cc2)c1O [FD1]

Compound: CC1=NN(c2ccc(C(=O)O)cc2)C(=O)C1=Cc1c(C)nn(-c2ccc(C(=O)O)cc2)c1O [FD2]
pH interval of abrupt S-shaped ESA transition [3, 5]: 4-6 pH
predominately carboxy group-based surface pKa [3, 5]: about 5.0
intrinsic electrokinetic charge ([3]; sign of charge, shown earlier by Texter): negative

Compound: O=C(O)c1ccco1 [Furoic acid]
pKa at 25° C. [1]: 3.17

Compound: CC(=O)O [sodium acetate]
effect on slurry pH / pH control (in words) [4]: increases the slurry pH to a significant extent; also recorded: significantly increases the slurry pH

Compound: O=C(O)c1ccccc1 [sodium benzoate]
effect on slurry pH / pH control (in words) [4]: very effective at providing significant pH control at relatively low concentrations

Compound: O=C([O-])c1ccccc1O.[Na+] [sodium salicylate]
effect on slurry pH / pH control (in words) [4]: provides some pH control
